Assay results as given in article PMC11269185, “Glutamate acts on acid-sensing ion channels to worsen ischaemic brain injury” (Nature, 2024).

Assays:
Type in all cases: binding
[1] = biological target: T1, ASIC1a (acid-sensing ion channel 1a) (Homo sapiens, UniProt P78348); assay: microscale thermophoresis in cell lysate, pH […]; patch clamp (IC50 […] against glutamate potentiation); parameters: gene ASIC1; eGFP-tagged wild-type ASIC1a in HEK293T lysate
T1 sequence (P78348 1-528): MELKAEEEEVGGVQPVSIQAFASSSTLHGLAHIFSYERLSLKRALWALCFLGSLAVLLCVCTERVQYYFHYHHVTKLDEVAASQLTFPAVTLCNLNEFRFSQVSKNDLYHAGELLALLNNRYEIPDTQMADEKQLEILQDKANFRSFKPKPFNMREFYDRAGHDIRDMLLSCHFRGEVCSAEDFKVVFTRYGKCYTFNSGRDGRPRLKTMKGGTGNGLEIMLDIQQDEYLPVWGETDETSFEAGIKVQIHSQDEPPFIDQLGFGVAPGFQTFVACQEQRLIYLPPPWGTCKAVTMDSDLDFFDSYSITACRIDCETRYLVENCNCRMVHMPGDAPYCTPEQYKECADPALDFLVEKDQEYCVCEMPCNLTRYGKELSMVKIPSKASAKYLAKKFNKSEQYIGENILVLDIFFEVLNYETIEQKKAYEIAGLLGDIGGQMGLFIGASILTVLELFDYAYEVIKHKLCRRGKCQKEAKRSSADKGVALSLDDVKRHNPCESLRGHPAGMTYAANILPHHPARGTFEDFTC

[2] = biological target: T1, ASIC1a (acid-sensing ion channel 1a); assay: microscale thermophoresis in cell lysate, pH […]; patch clamp; parameters: gene ASIC1; GFP-tagged ASIC1a in HEK293T lysate
[3] = biological target: T1, ASIC1a (acid-sensing ion channel 1a); assay: microscale thermophoresis in cell lysate, pH […] ([…] at pH […]); patch clamp; parameters: gene ASIC1; GFP-tagged hASIC1a in lysates of transfected HEK293T cells

For O=C(O)[C@@H]1C[C@H](CP(=O)(O)O)CCN1 [CGS19755], the Kd [1] was 1100 ± 200 nM.

Work on O=C(O)C1CN(C(c2ccccc2)P(=O)(O)O)CCN1 (stereo not drawn) [LK-2] yielded a Kd [2] of 1900 ± 400 nM.

With N[C@@H](CCC(=O)O)C(=O)O [glutamate] the Kd [3] was 113000 nM.
